{
  "source": "patent US20230235282A1",
  "about": "“SERUM-FREE INDUCTION METHOD FOR SENSORY NEURON CELL” (IREGENE THERAPEUTICS LTD, priority 2020, published 2023)",
  "key": {"[1]": {"tested_on": "sensory neuron cells from CD34+-derived induced pluripotent stem cells", "experiment": "Q-PCR of marker genes in induced sensory neuron cells", "description": "Total RNA from different sensory neuron cells was extracted by RNeasy Mini or Micro Kit (QIAGEN), and cDNA was synthesized from 1 mg RNA by SuperScript III First-Strand Synthesis System (Invitrogen). SYBR Premix Ex Taq (TaKaRa) and Thermal Cycler Dice Real Time System (TaKaRa) were used for labeling and reaction of Quantitative PCR, and beta-Actin was used as internal control. All data were analyzed by delta-Ct method. Triplicates were used for each group of experiments, and statistics were performed with ANOVA."}, "[2]": {"tested_on": "sensory neuron cells from CD34+-derived induced pluripotent stem cells", "experiment": "Morphology / axon formation of induced sensory neuron cells", "format": "cell-based, human", "settings": "for axon formation: low (3 μM), medium (6 μM) and high (10 μM) concentration", "description": "After obtaining the above-mentioned various sensory nerve precursor cells, the medium was removed, and cells were washed with DPBS, and then treated with 0.05% trypsin/EDTA at 37° C. for 5 minutes, and then cell digestion was terminated with DMEM. After the cells were washed and centrifuged, the cells were re-seeded in a T25 culture flask at 1-5×10^5 per plate, and the sensory nerve precursor cells were induced to differentiate and expand into mature sensory neurons by using sensory neuron cell medium. The conditions for cell culture were 37° C., 5% CO2."}, "[3]": {"experiment": "Osmotic pressure of the culture system by freezing point osmometer", "format": "physicochemical", "experimental": "In order to observe the effect of different concentrations of glycine-glutamine monohydrate on osmotic pressure, the effect of different concentrations of glycine-glutamine monohydrate on the osmotic pressure of culture system was detected by using an automatic freezing point osmometer (FM-8P, Shanghai Medical University Instrument Co., Ltd.), and specific operations were performed according to the product manual (FM-8P, Shanghai Medical University Instrument Co., Ltd.)."}, "[4]": {"tested_on": "sensory nerve precursor cells from CD34+-derived cells", "experiment": "Induction of sensory nerve precursor cells with different small molecules (morphology, Q-PCR of precursor markers)", "format": "cell-based, human", "settings": "5 μM in induction medium", "experimental": "When the induced pluripotent stem cells reached 70% coverage, they were digested with 0.05% trypsin/EDTA for 5 min at 37° C., and the cell digestion was terminated by using DMEM. After the cells were washed and centrifuged, they were re-seeded in a T25 culture plate at 2×10^5 per flask, and cultured in a sensory neuron induction medium at 37° C., 5% CO2 (Panasonic, MCO-18AC) for 10 days until the formation of neural plate, which confirmed the formation of sensory nerve precursor cells.\nAll data were analyzed by delta-Ct method.\n(5.2) Taking CD34+-derived cells as an example, different small molecules (5 μM RepSox, 5 μM SB525334 and 5 μM TEW-7197 molecules) were used to replace the LY2157299 in the sensory neuron induction medium N2GS212I-2 in Section (3.1) of Example 3; steps in Section (3.1) of Example 3 were repeated to observe the effects of different small molecules on the induced sensory nerve precursor cells.\n(5.3) Taking CD34+-derived cells as an example, steps of Example 4 (4.3) were repeated by using the sensory nerve precursor cells obtained in (5.2), and the effects of different small molecules on the expression of neuronal precursor cell markers during the formation of sensory nerve precursor cells were observed. As shown in the figures, the different inhibitor molecules were not only able to form neuron precursor cells (forming a neural plate structure shown in the figure), but also able to increase the expressions of neuron precursor cell markers."}, "[5]": {"target": "T1, sodium ion channel 1.7 (Homo sapiens, UniProt Q15858)", "T1 construct": "endogenous in cells; host or cells: sensory neurons induced from human fibroblast-derived iPSCs", "T1 sequence (Q15858 whole entry)": "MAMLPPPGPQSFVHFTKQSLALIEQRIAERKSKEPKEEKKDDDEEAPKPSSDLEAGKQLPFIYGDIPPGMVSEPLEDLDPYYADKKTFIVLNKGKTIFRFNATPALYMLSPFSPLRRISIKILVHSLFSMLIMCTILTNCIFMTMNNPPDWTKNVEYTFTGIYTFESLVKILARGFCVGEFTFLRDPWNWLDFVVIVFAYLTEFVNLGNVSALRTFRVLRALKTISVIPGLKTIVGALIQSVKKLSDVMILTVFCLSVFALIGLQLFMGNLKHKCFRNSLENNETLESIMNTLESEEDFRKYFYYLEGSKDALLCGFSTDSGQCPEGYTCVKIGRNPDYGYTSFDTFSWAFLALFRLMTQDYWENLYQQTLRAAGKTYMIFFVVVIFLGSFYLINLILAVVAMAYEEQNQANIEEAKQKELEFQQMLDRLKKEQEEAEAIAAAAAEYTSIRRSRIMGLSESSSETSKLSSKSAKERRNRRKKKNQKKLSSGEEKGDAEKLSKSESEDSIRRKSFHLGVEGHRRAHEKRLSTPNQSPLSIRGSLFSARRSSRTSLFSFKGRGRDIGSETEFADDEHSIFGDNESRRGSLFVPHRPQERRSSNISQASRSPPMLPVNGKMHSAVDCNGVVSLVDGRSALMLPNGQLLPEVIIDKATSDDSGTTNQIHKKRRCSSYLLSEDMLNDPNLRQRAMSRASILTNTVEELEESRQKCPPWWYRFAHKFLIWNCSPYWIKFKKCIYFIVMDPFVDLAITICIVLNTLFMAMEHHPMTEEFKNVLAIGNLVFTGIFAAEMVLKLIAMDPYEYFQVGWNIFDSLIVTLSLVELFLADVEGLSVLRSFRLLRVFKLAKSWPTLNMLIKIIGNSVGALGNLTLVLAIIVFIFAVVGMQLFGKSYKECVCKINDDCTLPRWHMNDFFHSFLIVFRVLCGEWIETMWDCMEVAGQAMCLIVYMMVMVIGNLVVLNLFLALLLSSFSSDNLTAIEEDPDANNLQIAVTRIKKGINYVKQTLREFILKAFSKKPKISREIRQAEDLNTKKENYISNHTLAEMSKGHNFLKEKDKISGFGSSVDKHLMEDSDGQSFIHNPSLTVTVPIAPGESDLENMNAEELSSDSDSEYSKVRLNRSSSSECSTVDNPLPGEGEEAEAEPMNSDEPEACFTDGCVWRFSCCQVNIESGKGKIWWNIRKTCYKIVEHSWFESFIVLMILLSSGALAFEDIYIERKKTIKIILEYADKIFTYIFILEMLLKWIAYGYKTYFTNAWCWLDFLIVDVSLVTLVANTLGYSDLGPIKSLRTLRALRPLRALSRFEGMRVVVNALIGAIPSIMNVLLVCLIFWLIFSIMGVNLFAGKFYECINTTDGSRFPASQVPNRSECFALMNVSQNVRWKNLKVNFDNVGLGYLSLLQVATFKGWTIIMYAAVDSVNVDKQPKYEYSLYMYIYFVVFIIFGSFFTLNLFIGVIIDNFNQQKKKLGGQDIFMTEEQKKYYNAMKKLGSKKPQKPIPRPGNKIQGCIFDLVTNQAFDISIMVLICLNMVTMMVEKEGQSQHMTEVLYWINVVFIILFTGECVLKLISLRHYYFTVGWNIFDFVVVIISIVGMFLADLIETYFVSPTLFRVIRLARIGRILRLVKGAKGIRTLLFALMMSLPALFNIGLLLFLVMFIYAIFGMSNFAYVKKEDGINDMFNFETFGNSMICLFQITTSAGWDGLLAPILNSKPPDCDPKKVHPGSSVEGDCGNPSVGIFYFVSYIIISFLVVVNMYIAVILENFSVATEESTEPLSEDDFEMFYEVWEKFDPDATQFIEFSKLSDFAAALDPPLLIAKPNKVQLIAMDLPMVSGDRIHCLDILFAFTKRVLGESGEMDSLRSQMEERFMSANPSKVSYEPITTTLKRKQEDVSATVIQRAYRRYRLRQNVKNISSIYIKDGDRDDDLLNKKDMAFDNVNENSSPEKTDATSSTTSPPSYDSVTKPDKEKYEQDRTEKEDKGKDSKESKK", "experiment": "MEA spontaneous discharge after PF-05089771", "format": "cell-based", "settings": "for electrophysiological strength of sodium ion channels of induced cells: various concentrations in induction/culture medium, after 1 μM PF-05089771, fibroblast-derived"}, "[6]": {"tested_on": "induced sensory neurons derived from fibroblasts", "experiment": "Cyquant cell viability assay", "format": "cell-based, human", "settings": "day 1, 3, 5, 10; different concentrations of NT3", "experimental": "The cell viability was quantitatively detected by Cyquant assay to compare the effects of different combinations of small molecule compounds on maintaining physiological states of cells during long-term culture of induced sensory neurons.\nCell plate coating was performed in a 96-well opaque cell culture plate according to the method in Example 4 (4.4.1). […] The cells were cultured in the sensory neuron cell induction medium of Example 3 with different concentrations of NT3, and the culture conditions were 37° C., 5% carbon dioxide, and the medium was half quantity changed every three days. The medium in the known method was used as a control group. Samples were taken at day 1, day 3, day 5 and day 10, respectively, and the cell viability detection was carried out by using CyQuant Kit (Invitrogen, X12223) according to the instruction manual, and date were read by SpectraMax i3 Multi-Mode Microplate Reader (VWR, ID3-STD)."}},
  "note": "Read-outs that look alike come from different tables or passages of the source.",
  "data": [
    {"molecule": "CHIR98014", "values": [
      {"measurement": "expression of SCN11A (Nav1.9) compared with the serum induction method", "setting": "[1]", "result": "significantly increased"},
      {"measurement": "expression of ion channel protein", "setting": "[1]", "result": "lower than normal level"},
      {"measurement": "expression of neuron marker Tuj", "setting": "[1]", "result": "lower than that at other concentrations"}
    ]},
    {"molecule": "C[C@H](NC(=O)Cc1cc(F)cc(F)c1)C(=O)N[C@H](C(=O)OC(C)(C)C)c1ccccc1", "note": "[DAPT]", "values": [
      {"measurement": "axon formation", "setting": "[2]", "result": "able to form axons"},
      {"measurement": "induced neuron cell markers and peripheral sensory neuron cell markers", "setting": "[1]; DAPT lower than 3 μM", "result": "much lower than those in the serum control group"},
      {"measurement": "expression of neuron marker Tuj", "setting": "[1]; DAPT more than 10 μM", "result": "increased"},
      {"measurement": "expression of sodium ion channel 1.8 (SCN10A)", "setting": "[1]; DAPT more than 10 μM", "result": "decreased"}
    ]},
    {"molecule": "O=S(=O)(O)CCN1CCN(CCO)CC1", "note": "[HEPES buffer, HEPES]", "values": [
      {"measurement": "cell morphology", "setting": "[2]; HEPES buffer 5 mM, 10 mM, 15 mM", "result": "morphologically normal"},
      {"measurement": "cell tolerance", "setting": "[2]; high concentration (15 mM)", "result": "cell intolerance began to appear"},
      {"measurement": "osmotic pressure with increase of concentration", "setting": "[3]; HEPES buffer in medium", "result": "increased linearly"},
      {"measurement": "osmotic pressure of the culture system", "setting": "[3]; concentration more than 15 mM", "result": "> 320", "unit": "mOsm/kg"}
    ]},
    {"molecule": "Cc1cccc(-c2[nH]c(CNc3ccccc3F)nc2-c2ccc3ncnn3c2)n1", "note": "[TEW-7197]", "values": [
      {"measurement": "formation of neuron precursor cells (neural plate structure)", "setting": "[4]", "result": "neuron precursor cells formed"}
    ]},
    {"molecule": "c1ccc2c(-c3cnn4cc(-c5ccc(N6CCNCC6)cc5)cnc34)ccnc2c1", "note": "[LDN193189]", "values": [
      {"measurement": "induction of cell types with neural axons", "setting": "[2]; 12 nM, 50 nM and 180 nM", "result": "cell types with neural axons can be induced"},
      {"measurement": "expression of Caspase3 relative to serum control group", "setting": "[1]; LDN193189 180 nM or more", "result": "more than 1.5 times"},
      {"measurement": "expression of sodium ion channel 1.8 (SCN10A)", "setting": "[1]; LDN193189 below 12 nM", "result": "lower than that in serum control"}
    ]},
    {"molecule": "Cc1cccc(-c2[nH]c(C(C)(C)C)nc2-c2ccc3nccnc3c2)n1", "note": "[SB525334]", "values": [
      {"measurement": "formation of neuron precursor cells (neural plate structure)", "setting": "[4]", "result": "neuron precursor cells formed"}
    ]},
    {"molecule": "Cc1cccc(-c2nn3c(c2-c2ccnc4ccc(C(N)=O)cc24)CCC3)n1", "note": "[LY2157299]", "values": [
      {"measurement": "formation of neuron precursor cells (neural plate structure)", "setting": "[4]", "result": "neuron precursor cells formed"},
      {"measurement": "antagonism against PF-05089771 of the induced neurons", "setting": "[5]; neurons induced by using LY2157299, 1 μM PF-05089771", "result": "more antagonism against PF-05089771"},
      {"measurement": "electrophysiological strength of sodium ion channels of induced cells", "setting": "[5]", "result": "significantly improved"},
      {"measurement": "expressions of SCN9A and SCN11A compared with the serum induction method", "setting": "[1]; 7.5 μM and 25 μM", "result": "significantly increased"},
      {"measurement": "expression of various sodium ion channel proteins versus concentration", "setting": "[1]; Q-PCR, different LY2157299 concentrations in induction medium", "result": "linear increase in concentration versus protein expression"},
      {"measurement": "ion channel protein expressions", "setting": "[1]; concentrations of below 50 nM", "result": "significantly lower than normal levels"}
    ]},
    {"molecule": "Cc1cccc(-c2[nH]ncc2-c2ccc3ncccc3n2)n1", "note": "[RepSox]", "values": [
      {"measurement": "formation of neuron precursor cells (neural plate structure)", "setting": "[4]", "result": "neuron precursor cells formed"}
    ]},
    {"molecule": "Cc1c[nH]c(/C=C2\\C(=O)Nc3ccccc32)c1CCC(=O)O", "note": "[SU5402]", "values": [
      {"measurement": "axon formation", "setting": "[2]", "result": "could form axons"},
      {"measurement": "electrophysiological strength of sodium ion channels of induced cells", "setting": "[5]", "result": "significantly improved"},
      {"measurement": "cell death marker CASP3", "setting": "[1]; SU5402 higher than 15 μM", "result": "significantly increased"},
      {"measurement": "expression of ion channel protein compared with serum induction method", "setting": "[1]; SU5402 lower than 3 μM", "result": "lower than the control level"}
    ]},
    {"molecule": "NT3: human-NT3 (Novoprotein, Cat. No. C079), added to sensory neuron cell medium (protein, UniProt P20783 139-257, looked up, Neurotrophin-3, human-NT3 (Novoprotein, Cat. No. C079), added to sensory neuron cell medium) Neurotrophin-3: YAEHKSHRGEYSVCDSESLWVTDKSSAIDIRGHQVTVLGEIKTGNSPVKQYFYETRCKEARPVKNGCRGIDDKHWNSQCKTSQTYVRALTSENNKLVGWRWIRIDTSCVCALSRKIGRT", "values": [
      {"measurement": "in vitro viability of induced neurons in long-term culture vs serum induction method", "setting": "[6]", "result": "effectively increase the in vitro viability"}
    ]}
  ]
}
